Experiments:
human TLR7 = biological target: T1, human TLR7 (Homo sapiens, UniProt Q9NYK1); assay: HEK293-Blue-hTLR-7 cells assay (SEAP reporter, R848 stimulation); format: cell-based; settings: HEK293-Blue-hTLR7 cells, R848 ligand, 20 hrs incubation; read-out: HEK/hTLR7 IC50
T1 sequence (Q9NYK1 27-1049): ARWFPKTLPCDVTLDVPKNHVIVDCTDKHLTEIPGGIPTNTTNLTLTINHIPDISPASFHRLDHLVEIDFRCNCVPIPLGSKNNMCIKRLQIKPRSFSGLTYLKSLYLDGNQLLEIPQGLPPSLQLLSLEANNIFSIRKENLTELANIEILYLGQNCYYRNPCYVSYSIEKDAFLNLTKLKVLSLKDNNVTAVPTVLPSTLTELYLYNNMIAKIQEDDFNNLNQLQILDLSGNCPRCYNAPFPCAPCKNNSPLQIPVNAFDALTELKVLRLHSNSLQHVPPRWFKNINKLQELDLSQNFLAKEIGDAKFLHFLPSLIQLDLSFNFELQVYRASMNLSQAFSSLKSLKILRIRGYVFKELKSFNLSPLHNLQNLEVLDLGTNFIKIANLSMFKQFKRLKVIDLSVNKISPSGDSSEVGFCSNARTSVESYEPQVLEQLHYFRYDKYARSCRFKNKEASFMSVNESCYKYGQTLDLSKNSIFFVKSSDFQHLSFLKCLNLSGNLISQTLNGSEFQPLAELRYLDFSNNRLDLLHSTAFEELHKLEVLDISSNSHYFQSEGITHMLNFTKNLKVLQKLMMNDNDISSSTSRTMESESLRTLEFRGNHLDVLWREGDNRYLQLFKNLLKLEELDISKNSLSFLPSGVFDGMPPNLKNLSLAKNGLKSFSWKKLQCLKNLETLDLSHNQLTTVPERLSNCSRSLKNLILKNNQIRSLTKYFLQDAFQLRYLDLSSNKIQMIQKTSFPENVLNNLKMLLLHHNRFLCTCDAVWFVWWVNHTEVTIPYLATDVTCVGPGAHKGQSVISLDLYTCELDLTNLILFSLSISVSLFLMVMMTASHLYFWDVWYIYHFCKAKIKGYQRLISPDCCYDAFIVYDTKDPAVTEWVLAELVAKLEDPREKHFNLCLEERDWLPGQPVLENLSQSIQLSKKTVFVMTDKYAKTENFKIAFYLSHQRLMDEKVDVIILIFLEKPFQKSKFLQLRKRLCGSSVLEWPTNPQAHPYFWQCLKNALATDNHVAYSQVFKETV
Experimental: The following tests were carried out in order to determine the activity of the compounds of formula (I) in HEK293-Blue-hTLR-7/8/9 cells assay.
A stable HEK293-Blue-hTLR-7 cell line was purchased from InvivoGen (Cat.#: hkb-htlr7, San Diego, California, USA). These cells were originally designed for studying the stimulation of human TLR7 by monitoring the activation of NF-κB. A SEAP (secreted embryonic alkaline phosphatase) reporter gene was placed under the control of the IFN-β minimal promoter fused to five NF-κB and AP-1-binding sites. The SEAP was induced by activating NF-κB and AP-1 via stimulating HEK-Blue hTLR7 cells with TLR7 ligands. Therefore the reporter expression was declined by TLR7 antagonist under the stimulation of a ligand, such as R848 (Resiquimod), for incubation of 20 hrs. The cell culture supernatant SEAP reporter activity was determined using QUANTI-Blue™ kit (Cat.#: rep-qb1, Invivogen, San Diego, Ca, USA) at a wavelength of 640 nm, a detection medium that turns purple or blue in the presence of alkaline phosphatase.
HEK293-Blue-hTLR7 cells were incubated at a density of 250,000˜450,000 cells/mL in a volume of 170 μL in a 96-well plate in Dulbecco's Modified Eagle's medium (DMEM) containing 4.5 g/L glucose, 50 U/mL penicillin, […], […], 2 mM L-glutamine, 10% (v/v) heat-inactivated fetal bovine serum with addition of 20 μL test compound in a serial dilution in the presence of final DMSO at 1% and 10 μL of 20 uM R848 in above DMEM, perform incubation under 37° C. in a CO2 incubator for 20 hrs. Then 20 μL of the supernatant from each well was incubated with […] Quanti-blue substrate solution at 37° C. for 2 hrs and the absorbance was read at 620-655 nm using a spectrophotometer. The signalling pathway that TLR7 activation leads to downstream NF-κB activation has been widely accepted, and therefore similar reporter assay was modified for evaluating TLR7 antagonist.

hERG = biological target: T2, hERG (Homo sapiens, UniProt Q12809); assay: hERG channel inhibition assay (patch-clamp, CHO hERG cells); format: cell-based; settings: for IC50 / IC20: CHO hERG cells, whole-cell patch-clamp; for IC20: human, CHO cells stably expressing hERG; for hERG IC20/TLR7 IC50 / hERG IC20/TLR8 IC50 / hERG IC20/TLR9 IC50: safety ratio, >30 suggests sufficient window
T2 construct: expressed in transfected cells
Experimental: The hERG K^+ channels were cloned in humans and stably expressed in a CHO (Chinese hamster ovary) cell line. CHOhERG cells were used for patch-clamp (voltage-clamp, whole-cell) experiments. Cells were stimulated by a voltage pattern to activate hERG channels and conduct I KhERG currents (rapid delayed outward rectifier potassium current of the hERG channel). After the cells were stabilized for a few minutes, the amplitude and kinetics of I KhERG were recorded at a stimulation frequency of 0.1 Hz (6 bpm). Thereafter, the test compound was added to the preparation at increasing concentrations. For each concentration, an attempt was made to reach a steady-state effect, usually, this was achieved within 3-10 min at which time the next highest concentration was applied. The amplitude and kinetics of IKhERG are recorded in each concentration of the drug which were compared to the control values (taken as 100%). […]

T2 sequence (Q12809 whole entry): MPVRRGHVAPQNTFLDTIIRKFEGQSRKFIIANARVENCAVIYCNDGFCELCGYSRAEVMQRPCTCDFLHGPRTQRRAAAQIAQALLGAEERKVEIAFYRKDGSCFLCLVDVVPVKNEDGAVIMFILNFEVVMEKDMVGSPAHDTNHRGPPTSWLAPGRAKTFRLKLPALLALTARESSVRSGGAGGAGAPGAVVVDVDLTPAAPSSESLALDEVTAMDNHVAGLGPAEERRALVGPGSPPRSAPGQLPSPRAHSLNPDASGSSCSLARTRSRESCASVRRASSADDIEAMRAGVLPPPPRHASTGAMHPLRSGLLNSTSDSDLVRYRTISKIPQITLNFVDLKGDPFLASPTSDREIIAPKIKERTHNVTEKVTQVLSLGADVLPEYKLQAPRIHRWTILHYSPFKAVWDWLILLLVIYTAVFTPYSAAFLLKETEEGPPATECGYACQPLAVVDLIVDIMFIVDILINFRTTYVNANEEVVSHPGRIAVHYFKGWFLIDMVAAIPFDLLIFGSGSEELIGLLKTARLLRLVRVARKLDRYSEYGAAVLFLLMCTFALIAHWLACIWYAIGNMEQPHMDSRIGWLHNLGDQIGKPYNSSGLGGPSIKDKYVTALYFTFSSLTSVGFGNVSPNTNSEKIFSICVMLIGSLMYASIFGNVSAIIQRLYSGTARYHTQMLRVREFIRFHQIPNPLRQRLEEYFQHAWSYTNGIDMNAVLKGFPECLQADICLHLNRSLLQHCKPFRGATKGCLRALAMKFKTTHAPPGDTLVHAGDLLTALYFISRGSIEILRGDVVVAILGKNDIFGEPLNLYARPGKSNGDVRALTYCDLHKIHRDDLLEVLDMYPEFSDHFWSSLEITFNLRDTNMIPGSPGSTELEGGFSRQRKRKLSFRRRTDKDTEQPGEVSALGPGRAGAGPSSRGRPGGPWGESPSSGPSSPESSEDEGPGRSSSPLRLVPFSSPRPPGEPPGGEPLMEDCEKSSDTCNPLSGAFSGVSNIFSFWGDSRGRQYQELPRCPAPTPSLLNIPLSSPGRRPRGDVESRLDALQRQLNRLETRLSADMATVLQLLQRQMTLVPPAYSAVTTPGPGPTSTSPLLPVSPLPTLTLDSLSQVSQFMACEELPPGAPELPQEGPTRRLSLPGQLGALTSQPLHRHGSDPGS

Question: Which IC50 (human TLR7) does the source give for `C[C@@H]1CN(c2ccc(C#N)c3ncccc23)C[C@H](C)N1Cc1ccc(N2CCNCC2)cc1` [Example 1, 5-[(3R,5S)-3,5-Dimethyl-4-[(4-piperazin-1-ylphenyl)methyl]piperazin-1-yl]quinoline-8-carbonitrile] here?
Answer: The IC50 was 53 nM.

Question: `C[C@@H]1CN(c2ccc(C#N)c3ncccc23)C[C@@H](C)N1Cc1ccc(N2CCNCC2)cc1` [Example 2] was tested. Which IC50 (human TLR7) did it give?
Answer: Its IC50 is 87 nM.

Question: Which IC50 (hERG) does the source give for `C[C@@H]1CN(c2ccc(C#N)c3ncccc23)C[C@H](C)N1Cc1ccc(N2CCNCC2)nc1` [Example 3, 5-[(3R,5S)-3,5-Dimethyl-4-[(6-piperazin-1-yl-3-pyridyl)methyl]piperazin-1-yl]quinoline-8-carbonitrile] here?
Answer: Its IC50 is > 20000 nM.

Question: What about the IC20 (hERG) of the same compound?
Answer: The IC20 was 7400 nM.

Question: And the “hERG IC20/TLR7 IC50” value (hERG)?
Answer: The value was 383.

Question: And the “hERG IC20/TLR8 IC50” value (hERG)?
Answer: Its value is 240.

Question: What about the “hERG IC20/TLR9 IC50” value (hERG) of the same compound?
Answer: Its value is 79.

Question: And the IC50 (human TLR7)?
Answer: Its IC50 is 19 nM.

Question: `C[C@@H]1CN(c2ccc(C#N)c3ncccc23)C[C@H](C)N1Cc1ncc(N2CCNCC2)cn1` [Example 4, 5-[(3S,5R)-3,5-Dimethyl-4-[(5-piperazin-1-ylpyrimidin-2-yl)methyl]piperazin-1-yl]quinoline-8-carbonitrile] was tested. Which IC50 (hERG) did it give?
Answer: The IC50 was > 20000 nM.

Question: And the IC20 (hERG)?
Answer: The IC20 was 6300 nM.

Question: What about the “hERG IC20/TLR7 IC50” value (hERG) of the same compound?
Answer: Its value is 384.

Question: And the “hERG IC20/TLR8 IC50” value (hERG)?
Answer: The value was 355.

Question: And the “hERG IC20/TLR9 IC50” value (hERG)?
Answer: Its value is 45.

Question: What about the IC50 (human TLR7) of the same compound?
Answer: The IC50 was 16 nM.

Question: `C[C@@H]1CN(c2ccc(C#N)c3ncccc23)C[C@H](C)N1Cc1ccc(N2CCNCC2)cn1` [Example 5, 5-[(3S,5R)-3,5-Dimethyl-4-[(5-piperazin-1-yl-2-pyridyl)methyl]piperazin-1-yl]quinoline-8-carbonitrile] was tested. Which IC50 (hERG) did it give?
Answer: Its IC50 is > 20000 nM.

Question: And the IC20 (hERG)?
Answer: The IC20 was > 10000 nM.

Question: And the “hERG IC20/TLR7 IC50” value (hERG)?
Answer: The value was >833.

Question: And the “hERG IC20/TLR8 IC50” value (hERG)?
Answer: The value was >666.

Question: What about the “hERG IC20/TLR9 IC50” value (hERG) of the same compound?
Answer: The value was >119.

Question: And the IC50 (human TLR7)?
Answer: Its IC50 is 12 nM.

Question: For `C[C@@H]1CN(c2ccc(C#N)c3ncccc23)C[C@H](C)N1Cc1ncc(N2CCN(C(=O)CN(C)C)CC2)cn1` [Example 6, 5-[(3S,5R)-4-[[5-[4-[2-(Dimethylamino)acetyl]piperazin-1-yl]pyrimidin-2-yl]methyl]-3,5-dimethyl-piperazin-1-yl]quinoline-8-carbonitrile], which IC50 (human TLR7) is on record?
Answer: Its IC50 is 67 nM.

Question: How did the IC50 (human TLR7) turn out when `C[C@@H]1CN(c2ccc(C#N)c3ncccc23)C[C@H](C)N1Cc1ccc(N2CCN(C)CC2)cn1` [Example 7, 5-[(3S,5R)-3,5-dimethyl-4-[[5-(4-methylpiperazin-1-yl)-2-pyridyl]methyl]piperazin-1-yl]quinoline-8-carbonitrile] was run?
Answer: Its IC50 is 30 nM.

Question: For `C[C@@H]1CN(c2ccc(C#N)c3ncccc23)C[C@H](C)N1Cc1ccc(N2CC3CNCC(C2)O3)cn1` [Example 8, 5-[(3S,5R)-3,5-Dimethyl-4-[[5-(9-oxa-3,7-diazabicyclo[3.3.1]nonan-3-yl)-2-pyridyl]methyl]piperazin-1-yl]quinoline-8-carbonitrile], which IC50 (human TLR7) is on record?
Answer: The IC50 was 78 nM.

Question: `C[C@@H]1CN(c2ccc(C#N)c3ncccc23)C[C@H](C)N1Cc1ccc(N[C@@H]2CNC[C@@H]2F)cn1` [Example 9, 5-[(3R,5S)-3,5-Dimethyl-4-[[5-[[(3R,4S)-4-fluoropyrrolidin-3-yl]amino]-2-pyridyl]methyl]piperazin-1-yl]quinoline-8-carbonitrile] was tested. Which IC50 (human TLR7) did it give?
Answer: Its IC50 is 51 nM.

Question: What does the source list for `C[C@@H]1CN(c2ccc(C#N)c3ncccc23)C[C@H](C)N1Cc1ccc(N2CCN(C(=O)C3CCCN3)CC2)cn1` (stereo partly drawn) [Example 10, 5-[(3R,5S)-3,5-Dimethyl-4-[[5-[4-(pyrrolidine-2-carbonyl)piperazin-1-yl]-2-pyridyl]methyl]piperazin-1-yl]quinoline-8-carbonitrile]?
Answer: IC50 (hERG): > 20000 nM; IC20 (hERG): > 10000 nM; hERG IC20/TLR7 IC50 (hERG): >145; hERG IC20/TLR8 IC50 (hERG): >197; hERG IC20/TLR9 IC50 (hERG): >242; IC50 (human TLR7): 69 nM

Question: How did the IC50 (hERG) turn out when `C[C@@H]1CN(c2ccc(C#N)c3ncccc23)C[C@H](C)N1Cc1ccc(N2CCN(C(=O)CN(C)C)CC2)cn1` [Example 11, 5-[(3S,5R)-4-[[5-[4-[2-(Dimethylamino)acetyl]piperazin-1-yl]-2-pyridyl]methyl]-3,5-dimethyl-piperazin-1-yl]quinoline-8-carbonitrile] was run?
Answer: The IC50 was > 20000 nM.

Question: What about the IC20 (hERG) of the same compound?
Answer: Its IC20 is > 10000 nM.

Question: What about the “hERG IC20/TLR7 IC50” value (hERG) of the same compound?
Answer: The value was >198.

Question: What about the “hERG IC20/TLR8 IC50” value (hERG) of the same compound?
Answer: Its value is >289.

Question: And the “hERG IC20/TLR9 IC50” value (hERG)?
Answer: Its value is >104.

Question: And the IC50 (human TLR7)?
Answer: Its IC50 is 50 nM.

Question: For `C[C@@H]1CN(c2ccc(C#N)c3ncccc23)C[C@H](C)N1Cc1ccc(N2CCNCC2CO)cc1` (stereo partly drawn) [Example 12, 5-[(3R,5S)-4-[[4-[2-(Hydroxymethyl)piperazin-1-yl]phenyl]methyl]-3,5-dimethyl-piperazin-1-yl]quinoline-8-carbonitrile], which IC50 (human TLR7) is on record?
Answer: Its IC50 is 87 nM.

Question: Which IC50 (human TLR7) does the source give for `C[C@@H]1CN(c2ccc(C#N)c3ncccc23)C[C@H](C)N1CC(=O)N1CCc2nc(N3CCNCC3)ccc2C1` [Example 13, 5-[(3R,5S)-3,5-Dimethyl-4-[2-oxo-2-(2-piperazin-1-yl-7,8-dihydro-5H-1,6-naphthyridin-6-yl)ethyl]piperazin-1-yl]quinoline-8-carbonitrile] here?
Answer: Its IC50 is 56 nM.

Question: With `C[C@@H]1CN(c2ccc(C#N)c3ncccc23)C[C@H](C)N1CC(=O)N1CCc2cc(N3CCNCC3)ccc2C1` [Example 14, 5-[(3R,5S)-3,5-Dimethyl-4-[2-oxo-2-(6-piperazin-1-yl-3,4-dihyrdo-1H-isoquinolin-2-yl)ethyl]piperazin-1-yl]quinoline-8-carbonitrile] as the compound, how does the IC50 (human TLR7) read?
Answer: The IC50 was 80 nM.

Question: For `C[C@@H]1CN(c2ccc(C#N)c3ncccc23)C[C@H](C)N1CC(=O)N1CCc2ccc(N3CCNCC3)cc2C1` [Example 15, 5-[(3R,5S)-3,5-dimethyl-4-[2-pxp-2-(7-piperazin-1-yl-3,4-dihydro-1H-isoquinolin-2-yl)ethyl]piperazin-1-yl]quinoline-8-carbonitrile], which IC50 (human TLR7) is on record?
Answer: Its IC50 is 67 nM.

Question: With `CC1CN(c2ccc(C#N)c3ncccc23)CCN1CC(=O)Nc1ccc(N2CCNCC2)cc1` (stereo not shown) [Example 17, 2-[4-(8-Cyano-5-quinolyl)-2-methyl-piperazin-1-yl]-N-(4-piperazin-1-ylpheny)acetamide] as the compound, how does the IC50 (human TLR7) read?
Answer: Its IC50 is 88 nM.

Question: With `CC1CN(c2ccc(C#N)c3ncccc23)CCN1CC(=O)Nc1ccc2c(c1)CCNC2` (stereo not shown) [Example 18, 2-[4-(8-Cyano-5-quinolyl)-2-methyl-piperazin-1yl]-N-(1,2,3,4-tetrahydroisoquinolin-6-yl)acetamide] as the compound, how does the IC50 (human TLR7) read?
Answer: Its IC50 is 60 nM.

Question: For `CC1CN(c2ccc(C#N)c3ncccc23)CCN1CC(=O)N1CCC(C2CCN(C)CC2)CC1` (stereo not shown) [Example 19, 5-[3-methyl-4-[2-[4-(1-methyl-4-piperidyl)-1-piperidyl]-2-oxo-ethyl]piperazin-1-yl]quinoline-8-carbonitrile], which IC50 (human TLR7) is on record?
Answer: Its IC50 is 57 nM.

Source: patent publication US11952363B2, “Piperazine compounds for the treatment of autoimmune disease” (Hoffmann-La Roche Inc., priority 2018, dated 2024)
